Assay results from article PMC11062922 (Nature Chemical Biology, 2023).
Where “and” joins values, the source holds several entries; their conditions need not be identical. Equal entries are not always repeated. Where two headings read alike, the source gives them in different places.

How the values were obtained:
MAP3K5 = biological target: T1, MAP3K5 (Homo sapiens, UniProt Q99683); test: Kinobeads two-dose competition binding: MAP3K5; details: Drugmatrix - all 2, read-out: apparent Kd MAP3K5
T1 construct: endogenous in cells

EPHA2 = biological target: T2, EPHA2 (Homo sapiens, UniProt P29317); test: Kinobeads two-dose competition binding: EPHA2; details: read-out: Lestaurtinib Drugmatrix value, Gene Name EPHA2
T2 construct: endogenous in cells

EPHB2 = biological target: T3, EPHB2 (Homo sapiens, UniProt P29323); test: Kinobeads two-dose competition binding: EPHB2; details: read-out: Lestaurtinib Drugmatrix value, Gene Name EPHB2
T3 construct: endogenous in cells
T3 sequence (P29323 19-1055): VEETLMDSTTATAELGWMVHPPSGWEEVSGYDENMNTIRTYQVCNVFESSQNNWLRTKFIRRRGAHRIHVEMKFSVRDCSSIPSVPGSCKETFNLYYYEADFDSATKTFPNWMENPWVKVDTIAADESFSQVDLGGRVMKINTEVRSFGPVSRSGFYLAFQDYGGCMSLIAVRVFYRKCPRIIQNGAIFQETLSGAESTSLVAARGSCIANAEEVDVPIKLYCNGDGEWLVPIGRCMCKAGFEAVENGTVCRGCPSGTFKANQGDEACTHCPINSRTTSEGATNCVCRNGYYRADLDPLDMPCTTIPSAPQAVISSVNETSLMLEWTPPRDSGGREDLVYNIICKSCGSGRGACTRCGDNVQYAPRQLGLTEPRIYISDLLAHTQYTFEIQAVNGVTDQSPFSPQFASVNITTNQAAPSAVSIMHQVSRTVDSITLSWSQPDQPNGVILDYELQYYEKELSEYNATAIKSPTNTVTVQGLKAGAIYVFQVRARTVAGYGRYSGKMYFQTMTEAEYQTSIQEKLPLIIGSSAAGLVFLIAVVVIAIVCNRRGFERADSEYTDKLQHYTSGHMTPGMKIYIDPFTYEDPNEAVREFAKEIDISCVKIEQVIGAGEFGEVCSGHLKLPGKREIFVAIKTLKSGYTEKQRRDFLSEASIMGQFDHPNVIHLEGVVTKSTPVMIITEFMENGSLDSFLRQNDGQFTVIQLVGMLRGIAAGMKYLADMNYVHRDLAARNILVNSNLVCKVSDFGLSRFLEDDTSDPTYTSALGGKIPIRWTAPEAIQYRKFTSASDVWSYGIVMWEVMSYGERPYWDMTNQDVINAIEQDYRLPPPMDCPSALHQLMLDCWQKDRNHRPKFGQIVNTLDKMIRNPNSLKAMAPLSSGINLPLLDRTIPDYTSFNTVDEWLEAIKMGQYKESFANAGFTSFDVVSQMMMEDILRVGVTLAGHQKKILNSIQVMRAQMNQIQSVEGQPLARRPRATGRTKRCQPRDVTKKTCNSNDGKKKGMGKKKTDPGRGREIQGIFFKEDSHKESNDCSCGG

BMPR1B = biological target: T4, BMPR1B (Homo sapiens, UniProt O00238); test: Kinobeads two-dose competition binding: BMPR1B; details: read-out: Lestaurtinib Drugmatrix value, Gene Name BMPR1B
T4 construct: endogenous in cells

ERCC2 = test: Kinobeads two-dose competition binding: ERCC2; set-up: species or system human; details: read-out: Lestaurtinib Drugmatrix value, Gene Name ERCC2; target ERCC2; each column = one Lestaurtinib control replicate (batch_R1-R3)
FYN = biological target: T5, FYN (Homo sapiens, UniProt P06241); test: Kinobeads two-dose competition binding: FYN; details: read-out: Lestaurtinib Drugmatrix value, Gene Name FYN; target FYN; each column = one Lestaurtinib control replicate (batch_R1-R3)
T5 construct: endogenous in cells

RIPK2 = biological target: T6, RIPK2 (Homo sapiens, UniProt O43353); test: Kinobeads full dose-response competition binding: RIPK2; details: Gene Name RIPK2
T6 construct: endogenous in cells

CK2alpha2 (CSNK2A2) = biological target: T7, CK2alpha2 (CSNK2A2) (Homo sapiens, UniProt P19784); test: Recombinant kinase activity assay (ProQinase, FlashPlate radiometric): CK2alpha2; type: biochemical
T7 construct: purchased ProQinase
Method: Kinase activity assays were performed by ProQinase. Dose-dependent activity inhibition of CDK1/cyclinB, CK2alpha1 and CK2alpha2 were measured using a FlashPlateTM-based radiometric assay at KM (ATP) of the respective kinase.

468 kinases = tested on: 468 kinases; set-up: KINOMEScan: unit not given here; details: cited from earlier work; for KINOMEScan: published data

T6 sequence (O43353 whole entry): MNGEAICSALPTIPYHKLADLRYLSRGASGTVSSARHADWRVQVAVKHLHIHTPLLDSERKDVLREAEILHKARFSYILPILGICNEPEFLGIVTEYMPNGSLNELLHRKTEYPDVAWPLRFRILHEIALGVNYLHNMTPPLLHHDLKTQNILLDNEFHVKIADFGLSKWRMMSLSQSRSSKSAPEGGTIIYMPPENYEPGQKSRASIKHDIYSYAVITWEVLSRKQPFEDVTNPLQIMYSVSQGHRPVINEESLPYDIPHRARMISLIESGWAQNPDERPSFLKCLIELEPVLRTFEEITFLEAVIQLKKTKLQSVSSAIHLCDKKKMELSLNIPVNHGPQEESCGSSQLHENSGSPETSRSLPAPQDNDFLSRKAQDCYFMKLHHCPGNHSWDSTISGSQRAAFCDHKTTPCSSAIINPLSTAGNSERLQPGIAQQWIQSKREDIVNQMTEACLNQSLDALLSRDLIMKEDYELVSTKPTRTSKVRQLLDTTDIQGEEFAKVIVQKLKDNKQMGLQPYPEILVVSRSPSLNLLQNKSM
T7 sequence (P19784 whole entry): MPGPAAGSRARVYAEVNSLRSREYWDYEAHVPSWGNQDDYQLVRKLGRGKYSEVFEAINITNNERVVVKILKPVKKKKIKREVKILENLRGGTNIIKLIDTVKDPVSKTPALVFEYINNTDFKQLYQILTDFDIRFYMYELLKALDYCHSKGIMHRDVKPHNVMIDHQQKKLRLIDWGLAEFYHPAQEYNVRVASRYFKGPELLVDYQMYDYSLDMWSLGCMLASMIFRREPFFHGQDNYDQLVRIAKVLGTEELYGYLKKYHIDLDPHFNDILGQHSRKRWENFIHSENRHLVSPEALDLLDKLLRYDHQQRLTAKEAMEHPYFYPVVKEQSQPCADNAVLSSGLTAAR
T2 sequence (P29317 24-976): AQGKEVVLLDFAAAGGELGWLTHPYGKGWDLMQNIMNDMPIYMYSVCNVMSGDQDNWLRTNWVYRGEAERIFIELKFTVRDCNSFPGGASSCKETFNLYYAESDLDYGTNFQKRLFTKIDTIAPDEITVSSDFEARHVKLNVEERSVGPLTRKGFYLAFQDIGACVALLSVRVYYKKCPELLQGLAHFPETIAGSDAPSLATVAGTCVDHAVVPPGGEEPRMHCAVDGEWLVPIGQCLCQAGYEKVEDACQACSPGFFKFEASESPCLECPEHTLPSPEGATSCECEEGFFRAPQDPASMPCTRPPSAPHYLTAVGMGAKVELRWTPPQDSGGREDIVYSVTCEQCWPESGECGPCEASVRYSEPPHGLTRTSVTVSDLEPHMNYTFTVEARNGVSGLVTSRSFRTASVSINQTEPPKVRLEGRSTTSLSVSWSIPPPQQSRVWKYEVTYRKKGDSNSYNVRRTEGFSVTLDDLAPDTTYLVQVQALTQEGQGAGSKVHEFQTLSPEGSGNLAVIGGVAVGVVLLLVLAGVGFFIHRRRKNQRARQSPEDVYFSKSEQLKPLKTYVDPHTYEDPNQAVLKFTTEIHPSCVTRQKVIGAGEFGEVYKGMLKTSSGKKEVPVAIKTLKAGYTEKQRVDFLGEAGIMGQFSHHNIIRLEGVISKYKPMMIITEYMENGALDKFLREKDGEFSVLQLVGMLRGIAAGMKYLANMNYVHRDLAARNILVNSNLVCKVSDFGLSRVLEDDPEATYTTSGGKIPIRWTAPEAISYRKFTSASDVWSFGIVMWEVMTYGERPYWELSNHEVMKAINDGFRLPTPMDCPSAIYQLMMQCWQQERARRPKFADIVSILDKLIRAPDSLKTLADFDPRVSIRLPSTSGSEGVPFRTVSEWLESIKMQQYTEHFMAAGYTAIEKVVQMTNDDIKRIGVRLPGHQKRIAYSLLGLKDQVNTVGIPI
T1 sequence (Q99683 whole entry): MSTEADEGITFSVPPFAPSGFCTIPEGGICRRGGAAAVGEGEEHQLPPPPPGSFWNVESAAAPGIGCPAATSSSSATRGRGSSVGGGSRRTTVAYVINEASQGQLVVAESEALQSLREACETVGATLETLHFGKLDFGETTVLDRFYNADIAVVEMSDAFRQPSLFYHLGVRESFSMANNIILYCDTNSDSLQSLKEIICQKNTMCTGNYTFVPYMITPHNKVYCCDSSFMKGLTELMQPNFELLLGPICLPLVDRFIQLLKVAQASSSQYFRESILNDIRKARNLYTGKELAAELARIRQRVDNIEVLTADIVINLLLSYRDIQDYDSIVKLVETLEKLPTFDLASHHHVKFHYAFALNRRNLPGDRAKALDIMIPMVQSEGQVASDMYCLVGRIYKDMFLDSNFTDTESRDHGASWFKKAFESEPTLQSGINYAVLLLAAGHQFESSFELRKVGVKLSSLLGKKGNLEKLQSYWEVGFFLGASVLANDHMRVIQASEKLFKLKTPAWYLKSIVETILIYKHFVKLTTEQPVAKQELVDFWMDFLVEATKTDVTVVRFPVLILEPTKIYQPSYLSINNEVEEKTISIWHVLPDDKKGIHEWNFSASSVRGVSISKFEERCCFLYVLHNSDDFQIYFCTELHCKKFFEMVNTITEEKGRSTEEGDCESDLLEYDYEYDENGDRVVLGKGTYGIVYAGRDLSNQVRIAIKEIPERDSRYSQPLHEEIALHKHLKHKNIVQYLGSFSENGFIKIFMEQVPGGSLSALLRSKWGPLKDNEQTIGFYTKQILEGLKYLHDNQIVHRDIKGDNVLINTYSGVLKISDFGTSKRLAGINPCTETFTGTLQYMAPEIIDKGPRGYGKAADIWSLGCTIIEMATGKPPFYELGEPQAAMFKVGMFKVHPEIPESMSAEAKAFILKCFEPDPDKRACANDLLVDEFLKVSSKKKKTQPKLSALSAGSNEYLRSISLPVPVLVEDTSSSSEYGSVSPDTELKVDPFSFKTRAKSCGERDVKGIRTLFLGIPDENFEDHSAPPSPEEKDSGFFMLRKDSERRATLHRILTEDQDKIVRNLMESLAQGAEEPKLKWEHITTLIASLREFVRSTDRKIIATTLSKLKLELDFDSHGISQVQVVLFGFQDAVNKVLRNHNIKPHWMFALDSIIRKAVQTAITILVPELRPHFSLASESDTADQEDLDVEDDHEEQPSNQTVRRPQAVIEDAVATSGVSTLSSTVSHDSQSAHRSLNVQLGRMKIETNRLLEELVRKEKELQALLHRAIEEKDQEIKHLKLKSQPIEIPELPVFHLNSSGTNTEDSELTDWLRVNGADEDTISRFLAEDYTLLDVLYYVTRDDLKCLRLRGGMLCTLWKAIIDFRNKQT
T5 sequence (P06241 whole entry): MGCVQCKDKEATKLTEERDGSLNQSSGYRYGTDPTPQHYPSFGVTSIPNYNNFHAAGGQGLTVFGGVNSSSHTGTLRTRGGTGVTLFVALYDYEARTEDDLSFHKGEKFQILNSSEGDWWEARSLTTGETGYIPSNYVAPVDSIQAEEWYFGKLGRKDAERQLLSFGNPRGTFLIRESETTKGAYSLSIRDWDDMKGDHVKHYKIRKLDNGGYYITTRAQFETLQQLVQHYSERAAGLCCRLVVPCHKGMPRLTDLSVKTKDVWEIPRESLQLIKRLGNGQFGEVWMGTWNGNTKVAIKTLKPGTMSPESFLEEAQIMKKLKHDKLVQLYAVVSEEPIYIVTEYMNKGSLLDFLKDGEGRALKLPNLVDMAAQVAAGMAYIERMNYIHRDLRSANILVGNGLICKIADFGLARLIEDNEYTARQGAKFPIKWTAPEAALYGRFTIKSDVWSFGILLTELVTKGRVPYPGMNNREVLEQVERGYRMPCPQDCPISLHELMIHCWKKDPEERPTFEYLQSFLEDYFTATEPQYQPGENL
T4 sequence (O00238 14-502): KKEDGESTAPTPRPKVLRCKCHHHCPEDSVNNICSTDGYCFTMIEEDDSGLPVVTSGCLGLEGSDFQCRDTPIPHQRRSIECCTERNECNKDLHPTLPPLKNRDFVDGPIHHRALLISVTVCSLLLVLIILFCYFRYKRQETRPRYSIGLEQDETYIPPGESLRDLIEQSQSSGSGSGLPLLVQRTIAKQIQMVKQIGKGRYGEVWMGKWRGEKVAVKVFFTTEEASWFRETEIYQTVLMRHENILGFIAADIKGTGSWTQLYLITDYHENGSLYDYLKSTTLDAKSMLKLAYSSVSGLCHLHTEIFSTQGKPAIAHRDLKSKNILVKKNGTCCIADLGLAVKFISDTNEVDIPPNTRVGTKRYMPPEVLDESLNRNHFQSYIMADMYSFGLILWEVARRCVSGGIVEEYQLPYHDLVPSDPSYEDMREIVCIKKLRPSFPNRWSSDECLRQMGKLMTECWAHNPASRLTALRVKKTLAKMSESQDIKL

SMILES: CC(C)N1CC(=O)N(C)c2cnc(Nc3cccc(S(=O)(=O)CCN4CCOCC4)c3)nc21 [BI00009348]
- potency estimated from few doses (MAP3K5): > 1000 nM

SMILES: C[C@]12O[C@H](C[C@]1(O)CO)n1c3ccccc3c3c4c(c5c6ccccc6n2c5c31)CNC4=O [Lestaurtinib]
- potency estimated from few doses (EPHA2): 428 nM
- potency estimated from few doses (EPHB2): 257 nM
- potency estimated from few doses (BMPR1B): 737 nM
- potency estimated from few doses (ERCC2): 161 nM and 261 nM
- potency estimated from few doses (FYN): 817 nM

SMILES: NCc1ccc(-c2nc(-c3ccncc3)c(-c3ccc(Cl)c(O)c3)[nH]2)cc1 [SB-476429-A]
- Relative Intensity 0.3nM (RIPK2; 0.3nM compound, DMSO = 1): 0.9341
- Relative Intensity 1nM (RIPK2; 1nM compound, DMSO = 1): 0.8676
- Relative Intensity 3nM (RIPK2; 3nM compound, DMSO = 1): 0.8459
- Relative Intensity 10nM (RIPK2; 10nM compound, DMSO = 1): 0.8036
- Relative Intensity 30nM (RIPK2; 30nM compound, DMSO = 1): 0.6574
- Relative Intensity 100nM (RIPK2; 100nM compound, DMSO = 1): 0.3411
- Relative Intensity 300nM (RIPK2; 300nM compound, DMSO = 1): 0.1841
- Relative Intensity 1000nM (RIPK2; 1000nM compound, DMSO = 1): 0.1065
- Kd (RIPK2; EC50 with Correction, doses in nM, read-out: apparent Kd): 28.8 nM
- EC50 (RIPK2; eight-dose curve fit, doses in nM): 55.9 nM

SMILES: COc1cc(Nc2ncc3c(C)nc(-c4cc5ccccc5[nH]4)n3n2)cc(OC)c1OC [GW869516X]
- IC50 (CK2alpha2 (CSNK2A2); Enzyme CK2alpha2, Highest Assay Concentration 1.00E-06 M, read-out: IC50): 33.7 nM
- IC50 (CK2alpha2 (CSNK2A2); recombinant kinase activity assay at KM (ATP), read-out: Activity IC50 CSNK2A2): 34 nM
- number of kinases with more than 70% inhibition of binding (468 kinases; broad KINOMEscan assay covering 468 kinases, ref a previous study): 33
- KINOMEScan (468 kinases; kinase AMPK-alpha1): 89
- KINOMEScan (468 kinases; kinase AMPK-alpha2): 61
- KINOMEScan (468 kinases; kinase BLK): 60
- KINOMEScan (468 kinases; kinase CIT): 100
- KINOMEScan (468 kinases; kinase CLK1): 88
- KINOMEScan (468 kinases; kinase CLK2): 75
- KINOMEScan (468 kinases; kinase CSNK2A1): 96.4
- KINOMEScan (468 kinases; kinase CSNK2A2): 99.7
- KINOMEScan (468 kinases; kinase DDR1): 52
- KINOMEScan (468 kinases; kinase DDR2): 52
- KINOMEScan (468 kinases; kinase DYRK1A): 85
- KINOMEScan (468 kinases; kinase DYRK1B): 81
- KINOMEScan (468 kinases; kinase EPHB1): 58
- KINOMEScan (468 kinases; kinase FLT3-autoinhibited): 75
- KINOMEScan (468 kinases; kinase FLT3): 96.3
- KINOMEScan (468 kinases; kinase GCN2(Kin.Dom.2,S808G)): 88
- KINOMEScan (468 kinases; kinase HIPK1): 79
- KINOMEScan (468 kinases; kinase INSRR): 53
- KINOMEScan (468 kinases; kinase JAK1(JH2domain-pseudokinase)): 98.5
- KINOMEScan (468 kinases; kinase JAK2(JH1domain-catalytic)): 54
- KINOMEScan (468 kinases; kinase KIT): 72
- KINOMEScan (468 kinases; kinase LCK): 71
- KINOMEScan (468 kinases; kinase MAP3K4): 52
- KINOMEScan (468 kinases; kinase MEK5): 78
- KINOMEScan (468 kinases; kinase MERTK): 56
- KINOMEScan (468 kinases; kinase MLK1): 93.8
- KINOMEScan (468 kinases; kinase MLK2): 89
- KINOMEScan (468 kinases; kinase MLK3): 87
- KINOMEScan (468 kinases; kinase NEK2): 70
- KINOMEScan (468 kinases; kinase NEK3): 89
- KINOMEScan (468 kinases; kinase NEK5): 99
- KINOMEScan (468 kinases; kinase NEK6): 99.6
- KINOMEScan (468 kinases; kinase NEK7): 99.7
- KINOMEScan (468 kinases; kinase NEK9): 90
- KINOMEScan (468 kinases; kinase NEK11): 86
- KINOMEScan (468 kinases; kinase PAK3): 69
- KINOMEScan (468 kinases; kinase PIP5K1C): 89
- KINOMEScan (468 kinases; kinase PIP5K2C): 90.3
- KINOMEScan (468 kinases; kinase PKAC-beta): 51
- KINOMEScan (468 kinases; kinase RSK1(Kin.Dom.1-N-terminal)): 91.7
- KINOMEScan (468 kinases; kinase RSK3(Kin.Dom.1-N-terminal)): 66
- KINOMEScan (468 kinases; kinase SLK): 63
- KINOMEScan (468 kinases; kinase SRC): 90.1
- KINOMEScan (468 kinases; kinase STK16): 86
- KINOMEScan (468 kinases; kinase SYK): 53
- KINOMEScan (468 kinases; kinase TBK1): 58
- KINOMEScan (468 kinases; kinase TYK2(JH2domain-pseudokinase)): 82
- KINOMEScan (468 kinases; kinase ULK2): 51
- KINOMEScan (468 kinases; kinase WEE2): 85
